{"source": "patent US11866692B2", "about": "“Fermentation fungal substance of astragalus membranaceus paecilomyces cicadae and its use” (BinZhou Medical University, priority 2019, dated 2024)", "tested_on": "rats with hyperuricemia", "experiment": "Efficacy test in potassium oxonate-induced hyperuricemia rats (serum UA, BUN, CRE, TG)", "format": "in vivo, Sprague Dawley (SD) rats", "details": "gavage twice each day for 14 days, 300 mg·kg−1 (benzbromarone 20 mg·kg−1), serum 4 h after last administration", "protocol": "SD rats were randomly divided into normal group, hyperuricemia (HUA) model group, positive medicine control group, Astragalus membranaceus group and fungal substance A group based on body mass, with 8 rats in each group. They were used in experiments after one week of adaptive feeding in an animal room. All groups were fed with normal feed. In addition, the normal group was treated with distilled water by gavage. Other groups were treated with 300 mg·kg^−1 of potassium oxonate by gavage each day for modeling. After 1 hour, the positive medicine control group was treated with 20 mg·kg^−1 of benzbromarone by gavage, the Astragalus membranaceus group was treated with 300 mg·kg^−1 of an Astragalus membranaceus powder solution by gavage, and the fungal substance A group was treated with 300 mg·kg^−1 of a fungal substance A solution by gavage. The treatment was performed twice each day for 14 consecutive days, and the dosage was 10 mL·kg^−1. Four hours after administration on the last day, blood samples were taken from the orbital venous plexus of the rats. The blood samples were stored at 4° C. overnight, and then centrifuged to obtain serum, which was for determination of biochemical indexes. After routine calibration and quality control, the contents of uric acid (UA), urea nitrogen (BUN), creatinine (CRE) and triglyceride (TG) in serum were determined by an automatic biochemical analyzer. All test results are expressed in the form of “mean±standard deviation”. Excel and software SPSS17.0 were utilized for calculation and statistics. After all data were tested for normal distribution and homogeneity of variance, single factor analysis of variance was performed. The difference between the two groups was tested by t-test. When P<0.05, the difference was considered to be statistically significant."}
{"smiles": "CCc1oc2ccccc2c1C(=O)c1cc(Br)c(O)c(Br)c1", "note": "[benzbromarone]", "values": [{"measurement": "Serum UA level compared with the model group", "setting": "FIG. 1", "result": "significantly reduced"}, {"measurement": "Serum CRE level compared with the model group", "setting": "FIG. 3", "result": "very significantly reduced"}, {"measurement": "Serum TG level compared with the model group", "setting": "FIG. 4", "result": "significantly reduced"}]}
